The source of these data is the SangsterLogP compilation.

Data set [1] in a line: method code SF-HPLC, from DOI: 10.1023/a:1015968113838, PMID: 3247280. The settings on record: pH 7.4.
Assay in data set [2]: not given
The source holds these as a separate data set.

Data set [3] can be described thus: method code SF, from DOI: 10.1023/a:1007583422634, PMID: 11028945. The settings on record: pH 7.4.
Assay in data set [4]: not given
The source holds these as a separate data set.

Data set [5] is described as follows: method code SF-RC, from Bracha, P.; O'Brien, D. (1966). The relation between physical properties and uptake of insecticides by eggs of the large milkweed bug. J Econ Entomol, 59(5)1255-1264.
Assay in data set [6]: not given
This is another data set of the same source.

Assay in data set [7]: not given
This is another data set of the same source.

The nature of data set [8]: method code SF-RC, from DOI: 10.1016/j.nucmedbio.2009.09.005, PMID: 20447558. The settings on record: pH 7.4.
A short description of data set [9]: method code SF-RC, from DOI: 10.1016/s0969-8051(02)00326-8, PMID: 12234587. The settings on record: pH 7.4.
The nature of data set [10]: method code SF, from Kim, K.; Kim, J.; Kim, Y. (1997). Study on physicochemical properties of pesticides. II. Hanguk Nonghwa Hakhoe Chi, 40(1)76-79.
A short description of data set [11]: method code SF-AS, from DOI: 10.1021/jm00384a018, PMID: 3806586.
Assay in data set [12]: not given
This is another data set of the same source.

Assay in data set [13]: not given
This is another data set of the same source.

Data set [14] is described as follows: method code SF-RC, from DOI: 10.1016/s0968-0896(99)00108-x, PMID: 10530922. The settings on record: pH 7.2.
Assay in data set [15]: not given
The source holds these as a separate data set.

Data set [16] can be described thus: method code SF-AS, from Kofitsekpo, W. (1980). An experimental evaluation of the log P of oxamniquine - a new schistosomicide. Drugs under experimental and clinical research, 6(5)421-426.
A short description of data set [17]: method code SF-HPLC, from DOI: 10.1002/ps.2780130506.
The nature of data set [18]: method code SF, from DOI: 10.1248/cpb.18.708. The settings on record: pH 6.4.
Data set [19] can be described thus: method code SF-HPLC, from DOI: 10.1016/0378-5173(95)00102-o.
A short description of data set [20]: method code SF-GLC, from DOI: 10.1021/es60128a001.
The nature of data set [21]: method code SF-RC, from DOI: 10.1016/j.nucmedbio.2007.07.017, PMID: 17998101. The settings on record: pH 7.4.
Assay in data set [22]: not given
This is another data set of the same source.

Data set [23] in a line: method code SF, from PMID: 2161451. The settings on record: pH 7.4.
The nature of data set [24]: method code SF-AS, from Pogodaeva, N.; Medvedeva, S. (2005). Hydrophobic properties of a number of monosubstituted flavone and flavanone derivatives. Russian Journal of Physical Chemistry A, 79(4)645-648.
Data set [25] is described as follows: method code SF-HPLC, from PMID: 18557421. The settings on record: pH 1.0.
Assay in data set [26]: not given
The source holds these as a separate data set.

The nature of data set [27]: method code SF-AS, from DOI: 10.1021/jf990946w, PMID: 10888534.
Assay in data set [28]: not given
The source holds these as a separate data set.

A short description of data set [29]: method code SF-AS, from Lippold, B.; Lichey, J. (1984). Transport of drugs through lipophilic polymer membranes. II. Influence of the partition and diffusion coefficients. Acta pharmaceutica technologica, 30(2)140-154.
Data set [30] can be described thus: method code SF-SF, from DOI: 10.1016/j.ejps.2010.09.003, PMID: 20854904. The settings on record: pH 10.0.
Assay in data set [31]: not given
This is another data set of the same source.

Assay in data set [32]: not given
The source holds these as a separate data set.

Data set [33] is described as follows: method code SF-HPLC, from DOI: 10.1021/je049947x.
Assay in data set [34]: not given
The source holds these as a separate data set.

Assay in data set [35]: not given
The source holds these as a separate data set.

A short description of data set [36]: method code SF-MB, from DOI: 10.1016/0378-5173(83)90017-0. The settings on record: pH 3.5.
A short description of data set [37]: method code SF-RC, from DOI: 10.1016/s0024-3205(01)01232-2. The settings on record: pH 7.4.
Assay in data set [38]: not given
This is another data set of the same source.

Assay in data set [39]: not given
The source holds these as a separate data set.

Data set [40] in a line: method code SF-AS, from DOI: 10.1155/2011/965826, PMID: 22295208.
Data set [41] can be described thus: method code SF, from DOI: 10.1021/jm5017544, PMID: 25671691. The settings on record: pH 7.4.
Assay in data set [42]: not given
The source holds these as a separate data set.

Data set [43] is described as follows: method code SF, from DOI: 10.1016/0378-5173(91)90120-d.
Data set [44] in a line: method code SF-RC, from DOI: 10.1016/j.nucmedbio.2010.09.012, PMID: 21492779. The settings on record: pH 7.4.

`CC(C)(C)C(=O)OCC1OC(n2cc(I)c(=O)[nH]c2=O)CC1O` (stereo not given) yielded a logD in [1] of 1.34.
`COc1cccc(N2CCN(CCN(C)C)C2=O)c1`: the logP is 1.76.
`CC(C)Cn1cnc2c(N)nc3ccccc3c21`: the logP in [2] worked out at 2.89.
Take `CCCCCOC(=O)[C@@H](N)Cc1ccc(O)c(O)c1`: in data set [3], the logD turned out to be 1.5.
As for `CCn1cc(C(=O)O)c(=O)c2cc([N+](=O)[O-])c(NCCO)cc21`, the logP in data set [4] amounted to 0.98.
`CNC(=O)Oc1cc(C(C)C)cc(C(C)C)c1` showed a logP in [5] of 3.55.
`COC(=O)C1(O)c2ccccc2-c2ccccc21` displayed a logP in [6] of 1.67.
In data set [7], `CC(C(=O)O)c1ccc2c(c1)[nH]c1ccc(Cl)cc12` (stereo not given) had a logP of 4.04.
On to `CC(C1CCCCC1)N(C)C(=O)c1ccc[nH]1` (stereo not given), for which the log distribution coefficient (logD) in [8] stood at 1.48.
As to `CNc1ccc(-c2cc3cc(I)ccc3o2)cc1`, in data set [9], the pH-dependent lipophilicity (logD) stood at 2.04.
Consider `CCOP(=S)(OCC)Oc1cc(C(F)(F)F)nn1-c1ccccc1`, for which, in [10], the logP came to 5.24.
As to `CC(O)C1=CCN(NC(=O)c2ccccc2)CC1` (stereo not given), the logP in [11] came out at 0.04.
`CCN(CC)CCNC(=O)c1cc(Br)c(N)cc1OC`: the logP in [12] worked out at 2.62.
`CC(C)(C)C(=O)CC(C(O)C(C)(C)C)n1cncn1` (stereo not given): the logP in data set [13] stood at 1.95.
With `CSc1ccc(COCCCc2c[nH]cn2)cc1`, in data set [14], the logD was 1.88.
As to `O=C1c2ccccc2C(=O)C1c1ccccc1`, the logP in [15] is 2.5.
In turn, `CC(C)NCC1CCc2cc(CO)c([N+](=O)[O-])cc2N1` (stereo not given) displayed a logP in data set [16] of 2.24.
In the case of `CNC(=O)ON=Cc1cccc(Oc2ccccc2)c1`, the logP in data set [17] came out at 3.12.
`Cc1cc(C)cc(NS(=O)(=O)c2ccc(N)cc2)c1` came in with a logD in data set [18] of 2.52.
The compound `CCCCCCCCOC(=O)c1cccnc1` returned a logP in data set [19] of 4.71.
For the compound `CCOP(=S)(OCC)SC(CCl)N1C(=O)c2ccccc2C1=O` (stereo not given), the logP in data set [20] amounted to 4.69.
In turn, `FCCON=C1C=C(C#Cc2ccccn2)CCC1` yielded a log distribution coefficient (logD) in data set [21] of 2.1.
In data set [22], `CCCCCCCCc1ccccc1` displayed a logP of 6.5.
Consider `CCOC(=O)c1ncn2c1CN(C)C(=O)c1c(I)cccc1-2`, for which the logD in [23] was determined as 1.48.
In turn, `O=C1c2ccccc2OC(c2ccccc2)C1O` (stereo not given) displayed a logP in data set [24] of 2.57.
Compound `COc1c(O)cc2c(c1O)C1OC(CO)C(O)C(O)C1OC2=O` (stereo not given) yielded a logD in [25] of -1.06.
In turn, `CC(C)(c1cc(Br)c(O)c(Br)c1)c1cc(Br)c(O)c(Br)c1` gave a logP in data set [26] of 5.2.
In the case of `O=c1c(O)c(-c2cc(O)c(O)c(O)c2)oc2cc(O)cc(O)c12`, the logP in [27] was 0.72.
`COc1ccc(CN2CCNCC2)c(OC)c1OC` returned a logP in data set [28] of 1.04.
The compound `Cc1ccc(Cl)c(OCC(O)CNC(C)(C)C)c1` (stereo not given) displayed a logP in [29] of 2.8.
Turning to `CN1CCN(CCC(=O)c2ccccc2)CC1`, in data set [30], the logD was 1.12.
`COc1cc(Cc2cnc(N)nc2N)c(I)c(OC)c1OC` came in with a logP in data set [31] of 1.79.
Consider `Cc1c2ccccc2cc2ccccc12`, for which the logP in [32] was determined as 4.96.
In data set [33], `Cc1cccc(C)c1N(Cn1cccn1)C(=O)CCl` gave a logP of 2.22.
Turning to `CC1CCCC(C)N1NC(=O)c1ccc(Cl)c(S(N)(=O)=O)c1` (stereo not given), the logP in data set [34] came out at 1.18.
In data set [35], `O=c1c(O)c(-c2ccc(O)c(O)c2)oc2cc(O)cc(O)c12` showed a logP of 2.13.
`CCCCCC(=O)N[C@@H]1C(=O)N2[C@@H]1SC(C)(C)[C@@H]2C(=O)O`: the log distribution coefficient (logD) in [36] worked out at 2.37.
In data set [37], `CNc1ccc(-c2nc3ccc(C)cc3s2)cc1` had a pH-dependent lipophilicity (logD) of 3.36.
`CCCOC(=O)c1ccccc1C(=O)OCCC` registered a logP in [38] of 4.05.
With `S=C(CCCCC1CCSS1)NCCN1CCOCC1` (stereo not given), in data set [39], the logP amounted to 2.9.
`CC(=O)OC[C@H]1O[C@@H](n2cnc(N)nc2=O)[C@H](OC(C)=O)[C@@H]1OC(C)=O`: the logP in data set [40] was -0.61.
In turn, `Nc1ccc(-c2ccc3ccccc3n2)cc1` registered a logD in [41] of 1.85.
In data set [42], `Cc1ccc2ccc3ccccc3c2c1` yielded a logP of 5.15.
In turn, `Cc1cccc(Nc2ccccc2C(=O)O)c1C` yielded a logP in [43] of 4.38.
On to `CN(C)c1ccc(-c2nc3ccc(I)cc3[nH]2)cc1`, for which the logD in data set [44] amounted to 2.8.

In general, logD refers to the decadic logarithm of the distribution of all forms, ionised or not, between an organic phase and buffer at a given pH. Read a high logD as higher lipophilicity.
